Measured values: patent US20180008665A1, “METHODS OF TREATING AND PREVENTING GOUT AND LEAD NEPHROPATHY” (priority 2016, published 2018)

Experiments:
[1] = Experimental: (§1) Each tablet contains 450 mg of pharmaceutical grade of GSH powder.
(§2) Seven (7) subjects with gout and hyperuricemia were examined. Specifically, these seven subjects were part of an open-label, twelve (12) weeks study in which they received 2700 mg daily (450 mg/tablet, 2 tablets/time, 3 times/day) of (2S)-2-Amino-4-{[(1R)-1-[(carboxymethyl)carbamoyl]-2-sulfanylethyl]carbamoyl}butanoic acid (hereinafter “CT° 1”).
All of the subjects were classified as renally impaired (glomerular filtration rate <80 ml/minute). A serum creatinine test measures the level of creatinine in the blood and provides an estimate of glomerular filtration rate that indicates the excretory function of the kidney. If the kidney functions improperly, an increased level of creatinine may accumulate in the blood.

[2] = remark: listed apart in the source
Experimental: as §1, §2

[3] = initiation during an acute gout attack, 57 men with crystal-proven gout; cited from earlier work
[4] = in vivo; cited from earlier work
[5] = after 12 weeks of treatment versus first visit, 2700 mg daily oral

Compound: N[C@@H](CCC(=O)N[C@@H](CS)C(=O)NCC(=O)O)C(=O)O [CT°I, (2S)-2-Amino-4-{[(1R)-1-[(carboxymethyl)carbamoyl]-2-sulfanylethyl]carbamoyl}butanoic acid]
- mean serum creatinine after 12 weeks of treatment ([1]; 7 subjects, 2700 mg daily oral, 12 weeks, first visit 135.29±6.89 μmol/L): 99.00 ± 4.45 µmol/L
- reduction of serum creatinine [1, 5]: 26.82%
- significance of the reduction of serum creatinine ([1]; p<0.05, 2700 mg daily oral): significantly different after 8 weeks of treatment
- mean blood lead level after 12 weeks of treatment ([2]; 7 subjects, 2700 mg daily oral, 12 weeks, first visit 49.90±8.41 μg/dL): 37.26 ± 6.29 µg/dL
- mean serum urate after 12 weeks of treatment ([2]; 7 subjects, 2700 mg daily oral, 12 weeks, first visit 521.07±40.11 mg/L): 346.46 ± 21.17 mg/L
- reduction of blood lead level [2, 5]: 25.33%
- reduction of serum urate [2, 5]: 33.51%
- significance of the reduction of blood lead level ([2]; p<0.05, 2700 mg daily oral): significantly different after 12 weeks of treatment
- significance of the reduction of serum urate ([2]; p<0.05, 2700 mg daily oral): significantly different after 8 weeks of treatment

Compound: Oc1ncnc2[nH]ncc12 [allopurinol]
- effect on daily pain, recurrent flares, or inflammatory markers [3]: no significant difference

Compound: COc1cc2c(c(OC)c1OC)-c1ccc(OC)c(=O)cc1[C@@H](NC(C)=O)CC2 [colchicine]
- part of the dose excreted unchanged by the kidney [4]: 10-20%
- removal by hemodialysis [4]: not removable by hemodialysis
